System: RTK1
Test: RTK1 expression by Western blot and whole-mount immunostaining of zebrafish embryos
Type: in vivo
Details: Western blot of zebrafish embryos and whole-mount immunostaining of rhombomeres, 4.5 ng
Excerpt: FIG. 1: EphA4 knockdown rescues mutant SOD1-induced motor axonopathy. […] Abnormal branching is indicated with arrowhead. Y-axes show motor axon length of zebrafish embryos expressing wild-type SOD1 (black bar, Panels D-G) or mutant SOD1 (white bar, Panels D-G). Knockdown of RTK2 in SOD1A4V- (Panel D), SOD1G93A- (Panel E) and SOD1G37R- (Panel F) expressing fish was established by co-injection of increasing amounts of atg-RTK2 morpholino (shaded bars). RTK1 expression was inhibited in SOD1A4V-expressing fish by co-injection of atg-RTK1 morpholino (shaded bars, Panel G). Ctr-RTK2 and ctr-RTK1 were used as control. ANOVA and Bonferroni's multiple comparison tests were used for statistical analysis. […]
Mice spinal cord and 30 hpf old, dechorionated and deyolked zebrafish embryos, and NSC-43 cells were homogenized in buffer: 50 mM Triz/HCl, pH 7.5, 120 mM NaCl, 1% TRITON® X-100, 1 mM sodium orthovanadaat, 2 mM PMSF, complete protease inhibitor (Roche). Protein concentration was determined using the micro-BCA protein assay reaction kit 207 (Pierce). […]

“5′-CTGTGAACACAAGCGCAGCCATTGG-′3 (all phosphorodiamidate morpholino (PMO)) [atg-RTK1]” was tested, and the RTK1 expression was “efficiently blocked RTK1 expression”.

From patent publication US9187784B2, “EphA4 is a disease modifier in motor neuron disease” (VIB VZW, priority 2011, dated 2015)
